From patent US10196369B2, “Spirocyclic EBI2 modulators” (Sanford Burnham Prebys Medical Discovery Institute, priority 2013, dated 2019) come the findings set out here.

Where only a bound is given, the exact number is not on record here.

EBI2, sequence (P32249 whole entry): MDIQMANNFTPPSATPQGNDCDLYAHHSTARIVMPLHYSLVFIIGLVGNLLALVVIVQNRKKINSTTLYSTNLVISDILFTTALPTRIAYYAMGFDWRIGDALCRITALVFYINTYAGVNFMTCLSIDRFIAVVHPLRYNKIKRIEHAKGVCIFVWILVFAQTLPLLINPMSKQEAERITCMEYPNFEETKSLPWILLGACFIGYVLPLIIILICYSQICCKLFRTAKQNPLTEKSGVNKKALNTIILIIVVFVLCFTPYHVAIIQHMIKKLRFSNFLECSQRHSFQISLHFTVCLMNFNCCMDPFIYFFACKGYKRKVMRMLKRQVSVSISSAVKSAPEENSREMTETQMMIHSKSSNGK

The target in the assay is EBI2 (Homo sapiens, UniProt P32249). Description: Cell-based luminescent assay of EBI2 modulation (7a,25-OHC stimulated). The settings on record: 7a,25-OHC final assay concentration 80 nM, 60 minute incubation. The procedure: To assess EBI2 modulation, the compounds described herein were assayed in the following cell-based luminescent assay:
1) Plated 600 cells/well in 4 μL of assay media into columns 1-48 of a 1536-well assay plate, using a liquid dispenser.
2) Centrifuged plates at 1000 rpm for 1 minute and covered with lids.
3) Incubated overnight at 37° C., 100% relative humidity, 5% CO2.
1) Centrifuged compound plates containing compounds described herein at 500 rpm for 1 minute.
2) Added compounds into assay plate col 5-48 to final concentration 4-5 uM. Added matching amount of DMSO to positive and negative control wells in columns 1-4.
3) Dispensed 2 uL/well of assay media to columns 1-2 for the positive control wells.
4) Added 2 uL/well of 400 nM 7a,25-OHC (final assay concentration=80 nM) in assay media to columns 3-48 for the negative control and test compound wells.
5) Centrifuged plates at 1000 rpm for 1 minute and re-lid plates.
6) Incubated plates at 37° C., 100% relative humidity, 5% CO2 for 60 minutes.
7) Following 60 minute incubation, delivered 2.5 uL of Detection Reagent solution to each assay plate (Columns 1-48) using a liquid handler.
8) Centrifuged plates at 2000 rpm for 2 minutes and re-lid plates.
9) Incubated plates for 60 minutes at 25 degrees in the dark.
10) Read plates using the Viewlux, Envision or other suitable plate reader using a luminescence detection.
The experimental values were normalized by the difference between values from neutral and stimulator control wells in each plate. Then normalized data was corrected to remove systematic plate patterns due to artifacts such as dispensing tip issues etc.
Turning to `O=C(c1cc2cc(Br)ccc2[nH]1)N1CC2(CCN(Cc3ccc(C(F)(F)F)cc3)CC2)C1` [Compound C50, 5-bromoindol-2-yl 7-{[4-(trifluoromethyl)phenyl]methyl}-2,7-diazaspiro[3.5]non-2-yl ketone], the IC50 was in the range of 500 to 5000 nM. Take `Nc1ccc(C(=O)N2CCC3(CC2)CN(C(=O)/C=C/c2ccc(Br)cc2)C3)cc1` [Compound C51, (2E)-1-{7-[(4-aminophenyl)carbonyl]-2,7-diazaspiro[3.5]non-2-yl}-3-(4-bromophenyl)prop-2-en-1-one]: the IC50 is < 100 nM. Next, `O=C(/C=C/c1ccc(Br)cc1)N1CCC2(CC1)CN(C(=O)c1ccc(F)cc1C(F)(F)F)C2` [Compound C52, (2E)-3-(4-bromophenyl)-1-(2-{[4-fluoro-2-(trifluoromethyl)phenyl]carbonyl}-2,7-diazaspiro[3.5]non-7-yl)prop-2-en-1-one]: < 100 nM; `O=C(/C=C/c1ccc(Br)cc1)N1CCC2(CC1)CN(C(=O)c1ccc(F)cc1)C2` [Compound C53, (2E)-3-(4-bromophenyl)-1-{2-[(4-fluorophenyl)carbonyl]-2,7-diazaspiro[3.5]non-7-yl}prop-2-en-1-one]: < 100 nM. Regarding `O=C(/C=C/c1ccc(Br)cc1)N1CCC2(CC1)CN(C(=O)c1ccc(C(F)(F)F)cc1)C2` [Compound C54, (2E)-3-(4-bromophenyl)-1-(2-{[4-(trifluoromethyl)phenyl]carbonyl}-2,7-diazaspiro[3.5]non-7-yl)prop-2-en-1-one], the IC50 is < 100 nM. As for `O=C(c1ccc(F)cc1)N1CCC2(CC1)CN(C(=O)c1cc3ccc(Cl)cc3[nH]1)C2` [Compound C55, 6-chloroindol-2-yl 7-[(4-fluorophenyl)carbonyl]-2,7-diazaspiro[3.5]non-2-yl ketone], the IC50 was 500 to 5000 nM. In turn, `O=C(c1ccc(Cl)cc1)N1CCC2(CC1)CN(C(=O)c1cc3ccc(Cl)cc3[nH]1)C2` [Compound C56, 6-chloroindol-2-yl 7-[(4-chlorophenyl)carbonyl]-2,7-diazaspiro[3.5]non-2-yl ketone] registered an IC50 of 500 to 5000 nM. Next, `O=C(c1ccc(F)cc1)N1CCC2(CC1)CN(C(=O)c1cc3ccc(Br)cc3[nH]1)C2` [Compound C57, 6-bromoindol-2-yl 7-[(4-fluorophenyl)carbonyl]-2,7-diazaspiro[3.5]non-2-yl ketone]: 500 to 5000 nM. The figure for `O=C(c1ccc(C(F)(F)F)cc1)N1CCC2(CC1)CN(C(=O)c1cc3ccc(Br)cc3[nH]1)C2` [Compound C58, 6-bromoindol-2-yl 7-{[4-(trifluoromethyl)phenyl]carbonyl}-2,7-diazaspiro[3.5]non-2-yl ketone] is 500 to 5000 nM; for `O=C(c1ccc(Cl)cc1)N1CCC2(CC1)CN(C(=O)c1cc3ccc(Br)cc3[nH]1)C2` [Compound C59, 6-bromoindol-2-yl 7-[(4-chlorophenyl)carbonyl]-2,7-diazaspiro[3.5]non-2-yl ketone] it is 500 to 5000 nM. Next, `O=C(c1cc2cc(Br)ccc2[nH]1)N1CC2(CCN(Cc3ccc(F)cc3C(F)(F)F)CC2)C1` [Compound C60, 5-bromoindol-2-yl 7-{[4-fluoro-2-(trifluoromethyl)phenyl]methyl}-2,7-diazaspiro[3.5]non-2-yl ketone]: 500 to 5000 nM.

The molecule `O=C(c1cc2ccc(Br)cc2[nH]1)N1CC2(CCN(C(=O)c3ccc(F)cc3C(F)(F)F)CC2)C1` [Compound C61, 6-bromoindol-2-yl 7-{[4-fluoro-2-(trifluoromethyl)phenyl]carbonyl}-2,7-diazaspiro[3.5]non-2-yl ketone] registered an IC50 of 100 to 500 nM.

The molecule `COc1cc(CN2CCC3(CC2)CN(C(=O)c2cc4cc(Br)ccc4[nH]2)C3)cc(OC)c1` [Compound C62, 7-[(3,5-dimethoxyphenyl)methyl]-2,7-diazaspiro[3.5]non-2-yl 5-bromoindol-2-yl ketone] showed an IC50 of 100 to 500 nM. Turning to `O=C(c1cc2ccc(Br)cc2[nH]1)N1CC2(CCN(Cc3ccc(C(F)(F)F)cc3)CC2)C1` [Compound C63, 6-bromoindol-2-yl 7-{[4-(trifluoromethyl)phenyl]methyl}-2,7-diazaspiro[3.5]non-2-yl ketone], the IC50 is 500 to 5000 nM.

In turn, `O=C(C#Cc1ccc(Br)cc1)N1CC2(CCN(C(=O)c3ccc(Cl)cc3)CC2)C1` [Compound C64, 3-(4-bromophenyl)-1-{7-[(4-chlorophenyl)carbonyl]-2,7-diazaspiro[3.5]non-2-yl}prop-2-yn-1-one] registered an IC50 of 100 to 500 nM. As for `O=C(C#Cc1ccc(Br)cc1)N1CC2(CCN(C(=O)c3ccc(C(F)(F)F)cc3)CC2)C1` [Compound C65, 3-(4-bromophenyl)-1-(7-{[4-(trifluoromethyl)phenyl]carbonyl}-2,7-diazaspiro[3.5]non-2-yl)prop-2-yn-1-one], the IC50 was in the range of 100 to 500 nM.

For `O=C(C#Cc1ccc(Br)cc1)N1CCC2(CC1)CN(C(=O)c1ccc(F)cc1)C2` [Compound C67, 3-(4-bromophenyl)-1-{2-[(4-fluorophenyl)carbonyl]-2,7-diazaspiro[3.5]non-7-yl}prop-2-yn-1-one], the IC50 was 500 to 5000 nM.

With `O=C(C#Cc1ccc(Br)cc1)N1CCC2(CC1)CN(Cc1ccc(F)cc1)C2` [Compound C68, 3-(4-bromophenyl)-1-{2-[(4-fluorophenyl)methyl]-2,7-diazaspiro[3.5]non-7-yl}prop-2-yn-1-one], the IC50 is < 100 nM. Regarding `O=C(C#Cc1ccc(Br)cc1)N1CCC2(CC1)CN(Cc1ccc(Cl)cc1)C2` [Compound C69, 3-(4-bromophenyl)-1-{2-[(4-chlorophenyl)methyl]-2,7-diazaspiro[3.5]non-7-yl}prop-2-yn-1-one], the IC50 is < 100 nM.

With `O=C(C#Cc1ccc(Br)cc1)N1CCC2(CC1)CN(C(=O)c1ccc(Cl)cc1)C2` [Compound C70, 3-(4-bromophenyl)-1-{2-[(4-chlorophenyl)carbonyl]-2,7-diazaspiro[3.5]non-7-yl}prop-2-yn-1-one], the half-inhibitory concentration (IC50) was in the range of 100 to 500 nM. The figure for `O=C(C#Cc1ccc(Br)cc1)N1CCC2(CC1)CN(C(=O)c1ccc(C(F)(F)F)cc1)C2` [Compound C71, 3-(4-bromophenyl)-1-(2-{[4-(trifluoromethyl)phenyl]carbonyl}-2,7-diazaspiro[3.5]non-7-yl)prop-2-yn-1-one] is < 100 nM; for `O=C(C#Cc1ccc(Br)cc1)N1CCC2(CC1)CN(Cc1ccc(Br)cc1)C2` [Compound C72, 3-(4-bromophenyl)-1-{2-[(4-bromophenyl)methyl]-2,7-diazaspiro[3.5]non-7-yl}prop-2-yn-1-one] it is < 100 nM; for `O=C(C#Cc1ccc(Br)cc1)N1CCC2(CC1)CN(Cc1ccc(C(F)(F)F)cc1)C2` [Compound C73, 3-(4-bromophenyl)-1-(2-{[4-(trifluoromethyl)phenyl]methyl}-2,7-diazaspiro[3.5]non-7-yl)prop-2-yn-1-one] it is < 100 nM. For the molecule `COc1ccc(C(=O)N2CC3(CCN(C(=O)C#Cc4ccc(Br)cc4)CC3)C2)cc1` [Compound C74, 3-(4-bromophenyl)-1-{2-[(4-methoxyphenyl)carbonyl]-2,7-diazaspiro[3.5]non-7-yl}prop-2-yn-1-one], the IC50 is < 100 nM.

As to `COc1ccc(CN2CC3(CCN(C(=O)C#Cc4ccc(Br)cc4)CC3)C2)cc1` [Compound C75, 3-(4-bromophenyl)-1-{2-[(4-methoxyphenyl)methyl]-2,7-diazaspiro[3.5]non-7-yl}prop-2-yn-1-one], the IC50 was 100 to 500 nM.

In the case of `O=C(C#Cc1ccc(Cl)cc1)N1CCC2(CC1)CN(C(=O)c1ccc(Cl)cc1)C2` [Compound C76, 3-(4-chlorophenyl)-1-{2-[(4-chlorophenyl)carbonyl]-2,7-diazaspiro[3.5]non-7-yl}prop-2-yn-1-one], the IC50 is < 100 nM. As to `O=C(C#Cc1ccc(Cl)cc1)N1CCC2(CC1)CN(C(=O)c1ccc(F)cc1)C2` [Compound C77, 3-(4-chlorophenyl)-1-{2-[(4-fluorophenyl)carbonyl]-2,7-diazaspiro[3.5]non-7-yl}prop-2-yn-1-one], the IC50 is < 100 nM.

In the case of `O=C(C#Cc1ccc(Cl)cc1)N1CCC2(CC1)CN(Cc1ccc(C(F)(F)F)cc1)C2` [Compound C78, 3-(4-chlorophenyl)-1-(2-{[4-(trifluoromethyl)phenyl]methyl}-2,7-diazaspiro[3.5]non-7-yl)prop-2-yn-1-one], the IC50 is < 100 nM.

Regarding `O=C(C#Cc1ccc(Cl)cc1)N1CCC2(CC1)CN(C(=O)c1ccc(C(F)(F)F)cc1)C2` [Compound C79, 3-(4-chlorophenyl)-1-(2-{[4-(trifluoromethyl)phenyl]carbonyl}-2,7-diazaspiro[3.5]non-7-yl)prop-2-yn-1-one], the IC50 was < 100 nM. Next, `O=C(C#Cc1ccc(Cl)cc1)N1CC2(CCN(C(=O)c3ccc(C(F)(F)F)cc3)CC2)C1` [Compound C80, 3-(4-chlorophenyl)-1-(7-{[4-(trifluoromethyl)phenyl]carbonyl}-2,7-diazaspiro[3.5]non-2-yl)prop-2-yn-1-one]: < 100 nM.

In the case of `O=C(C#Cc1ccc(Cl)cc1)N1CC2(CCN(Cc3ccc(F)cc3)CC2)C1` [Compound C81, 3-(4-chlorophenyl)-1-{7-[(4-fluorophenyl)methyl]-2,7-diazaspiro[3.5]non-2-yl}prop-2-yn-1-one], the IC50 lay in the range of 100 to 500 nM.
